Results reported in paper PMC7613998, “Development of selective inhibitors of phosphatidylinositol 3-kinase C2α” (Nature Chemical Biology, 2022).

Assays:
Experiment in all cases: biochemical
Set-up in all cases: SelectScreen Z'-LYTE purified kinase panel, per cent inhibition, mean of two points
Conditions in all cases: (μM)=Km app
PDGFRA (PDGFR alpha) = PDGFRA (PDGFR alpha) (Homo sapiens, UniProt P16234)
IKBKB (IKK beta) = target: T1, IKBKB (IKK beta) (Homo sapiens, UniProt O14920)
T1 sequence (O14920 1-756): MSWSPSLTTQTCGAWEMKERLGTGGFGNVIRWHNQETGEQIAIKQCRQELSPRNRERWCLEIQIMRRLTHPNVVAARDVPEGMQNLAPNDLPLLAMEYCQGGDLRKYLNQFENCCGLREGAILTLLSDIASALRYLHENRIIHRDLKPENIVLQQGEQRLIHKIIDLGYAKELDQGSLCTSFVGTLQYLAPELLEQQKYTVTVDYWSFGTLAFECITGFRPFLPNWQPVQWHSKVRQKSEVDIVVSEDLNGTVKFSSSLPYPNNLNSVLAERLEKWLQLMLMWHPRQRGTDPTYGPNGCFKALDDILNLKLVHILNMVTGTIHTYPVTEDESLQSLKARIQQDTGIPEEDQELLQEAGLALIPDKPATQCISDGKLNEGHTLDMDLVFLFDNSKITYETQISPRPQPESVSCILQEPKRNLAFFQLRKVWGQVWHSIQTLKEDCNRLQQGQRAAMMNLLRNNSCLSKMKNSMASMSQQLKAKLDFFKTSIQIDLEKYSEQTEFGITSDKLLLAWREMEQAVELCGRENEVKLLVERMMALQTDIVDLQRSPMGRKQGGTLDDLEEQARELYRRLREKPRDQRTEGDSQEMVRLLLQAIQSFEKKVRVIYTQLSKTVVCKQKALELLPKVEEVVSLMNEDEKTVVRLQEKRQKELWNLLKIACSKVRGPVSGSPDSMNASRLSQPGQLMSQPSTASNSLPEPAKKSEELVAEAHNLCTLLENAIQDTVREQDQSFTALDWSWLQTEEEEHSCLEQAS

PRKACA (PKA) = PRKACA (PKA) (Homo sapiens, UniProt P17612)
FLT3 = target: T2, FLT3 (Homo sapiens, UniProt P36888)
T2 sequence (P36888 1-993): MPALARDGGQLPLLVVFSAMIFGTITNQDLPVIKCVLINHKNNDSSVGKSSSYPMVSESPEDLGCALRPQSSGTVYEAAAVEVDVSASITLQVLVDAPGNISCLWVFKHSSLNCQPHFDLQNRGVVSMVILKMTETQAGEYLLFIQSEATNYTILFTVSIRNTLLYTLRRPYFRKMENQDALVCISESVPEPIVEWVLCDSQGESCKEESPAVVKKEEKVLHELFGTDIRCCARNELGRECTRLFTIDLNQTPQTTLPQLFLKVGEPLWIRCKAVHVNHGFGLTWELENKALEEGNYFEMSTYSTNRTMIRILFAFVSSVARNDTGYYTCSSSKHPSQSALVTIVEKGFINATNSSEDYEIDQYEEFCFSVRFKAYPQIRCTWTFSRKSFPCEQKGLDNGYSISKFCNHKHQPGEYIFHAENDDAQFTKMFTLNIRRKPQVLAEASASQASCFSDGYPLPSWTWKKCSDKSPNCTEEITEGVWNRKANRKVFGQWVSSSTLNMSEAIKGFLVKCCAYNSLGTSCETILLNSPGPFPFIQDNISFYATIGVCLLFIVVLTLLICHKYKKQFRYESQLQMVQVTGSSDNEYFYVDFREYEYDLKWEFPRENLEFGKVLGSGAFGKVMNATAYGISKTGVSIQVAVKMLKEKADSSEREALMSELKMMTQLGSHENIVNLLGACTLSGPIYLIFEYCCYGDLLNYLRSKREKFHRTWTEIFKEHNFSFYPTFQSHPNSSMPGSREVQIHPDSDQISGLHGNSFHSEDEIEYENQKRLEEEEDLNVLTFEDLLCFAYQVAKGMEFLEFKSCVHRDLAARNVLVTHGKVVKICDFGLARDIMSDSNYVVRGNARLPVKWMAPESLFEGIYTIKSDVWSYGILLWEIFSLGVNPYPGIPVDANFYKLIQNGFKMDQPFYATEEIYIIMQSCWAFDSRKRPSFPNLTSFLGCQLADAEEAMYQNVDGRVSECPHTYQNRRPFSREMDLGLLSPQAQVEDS

AURKA (Aurora A) = target: T3, AURKA (Aurora A) (Homo sapiens, UniProt O14965)
T3 sequence (O14965 1-403): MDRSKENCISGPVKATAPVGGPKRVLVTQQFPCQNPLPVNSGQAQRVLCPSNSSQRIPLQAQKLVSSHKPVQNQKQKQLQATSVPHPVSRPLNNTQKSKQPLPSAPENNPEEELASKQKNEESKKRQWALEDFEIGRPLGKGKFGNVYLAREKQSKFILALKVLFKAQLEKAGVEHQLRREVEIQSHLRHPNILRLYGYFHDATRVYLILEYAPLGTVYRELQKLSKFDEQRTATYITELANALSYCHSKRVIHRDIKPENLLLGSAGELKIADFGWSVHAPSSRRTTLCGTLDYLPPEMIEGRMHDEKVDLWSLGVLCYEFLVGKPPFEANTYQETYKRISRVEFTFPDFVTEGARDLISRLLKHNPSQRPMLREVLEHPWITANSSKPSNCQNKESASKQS

ABL1 E255K = ABL1 E255K (Homo sapiens, UniProt P00519, E255K)
ABL1 E255K, sequence (P00519 whole entry E255K): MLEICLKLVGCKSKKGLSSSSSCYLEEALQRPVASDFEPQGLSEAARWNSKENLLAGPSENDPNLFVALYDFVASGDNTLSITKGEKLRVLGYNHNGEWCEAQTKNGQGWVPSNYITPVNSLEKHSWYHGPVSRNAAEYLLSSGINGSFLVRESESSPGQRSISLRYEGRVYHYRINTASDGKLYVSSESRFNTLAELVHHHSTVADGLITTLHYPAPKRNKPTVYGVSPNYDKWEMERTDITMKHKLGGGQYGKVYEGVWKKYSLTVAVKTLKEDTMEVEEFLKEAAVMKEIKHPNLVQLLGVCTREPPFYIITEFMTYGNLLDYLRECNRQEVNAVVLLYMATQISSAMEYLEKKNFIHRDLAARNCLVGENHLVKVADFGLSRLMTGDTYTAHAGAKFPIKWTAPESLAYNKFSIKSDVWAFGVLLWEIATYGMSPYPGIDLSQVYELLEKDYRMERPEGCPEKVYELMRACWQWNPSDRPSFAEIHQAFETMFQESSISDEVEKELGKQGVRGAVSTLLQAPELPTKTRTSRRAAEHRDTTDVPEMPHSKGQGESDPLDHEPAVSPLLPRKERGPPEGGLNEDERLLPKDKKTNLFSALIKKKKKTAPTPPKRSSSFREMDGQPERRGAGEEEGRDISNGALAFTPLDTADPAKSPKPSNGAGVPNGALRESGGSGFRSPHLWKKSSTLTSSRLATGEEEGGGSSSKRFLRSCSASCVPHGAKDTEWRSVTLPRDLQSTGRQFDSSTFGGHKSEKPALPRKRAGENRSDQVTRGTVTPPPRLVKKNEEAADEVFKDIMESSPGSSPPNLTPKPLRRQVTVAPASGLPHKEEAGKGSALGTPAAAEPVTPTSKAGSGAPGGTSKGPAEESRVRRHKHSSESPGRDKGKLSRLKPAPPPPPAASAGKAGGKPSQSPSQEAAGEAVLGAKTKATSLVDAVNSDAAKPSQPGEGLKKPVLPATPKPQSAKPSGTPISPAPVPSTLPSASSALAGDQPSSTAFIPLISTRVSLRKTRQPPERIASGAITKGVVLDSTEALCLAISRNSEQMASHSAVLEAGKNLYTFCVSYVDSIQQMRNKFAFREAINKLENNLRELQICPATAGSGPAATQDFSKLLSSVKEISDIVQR

PDGFRA (PDGFR alpha), sequence (P16234 whole entry): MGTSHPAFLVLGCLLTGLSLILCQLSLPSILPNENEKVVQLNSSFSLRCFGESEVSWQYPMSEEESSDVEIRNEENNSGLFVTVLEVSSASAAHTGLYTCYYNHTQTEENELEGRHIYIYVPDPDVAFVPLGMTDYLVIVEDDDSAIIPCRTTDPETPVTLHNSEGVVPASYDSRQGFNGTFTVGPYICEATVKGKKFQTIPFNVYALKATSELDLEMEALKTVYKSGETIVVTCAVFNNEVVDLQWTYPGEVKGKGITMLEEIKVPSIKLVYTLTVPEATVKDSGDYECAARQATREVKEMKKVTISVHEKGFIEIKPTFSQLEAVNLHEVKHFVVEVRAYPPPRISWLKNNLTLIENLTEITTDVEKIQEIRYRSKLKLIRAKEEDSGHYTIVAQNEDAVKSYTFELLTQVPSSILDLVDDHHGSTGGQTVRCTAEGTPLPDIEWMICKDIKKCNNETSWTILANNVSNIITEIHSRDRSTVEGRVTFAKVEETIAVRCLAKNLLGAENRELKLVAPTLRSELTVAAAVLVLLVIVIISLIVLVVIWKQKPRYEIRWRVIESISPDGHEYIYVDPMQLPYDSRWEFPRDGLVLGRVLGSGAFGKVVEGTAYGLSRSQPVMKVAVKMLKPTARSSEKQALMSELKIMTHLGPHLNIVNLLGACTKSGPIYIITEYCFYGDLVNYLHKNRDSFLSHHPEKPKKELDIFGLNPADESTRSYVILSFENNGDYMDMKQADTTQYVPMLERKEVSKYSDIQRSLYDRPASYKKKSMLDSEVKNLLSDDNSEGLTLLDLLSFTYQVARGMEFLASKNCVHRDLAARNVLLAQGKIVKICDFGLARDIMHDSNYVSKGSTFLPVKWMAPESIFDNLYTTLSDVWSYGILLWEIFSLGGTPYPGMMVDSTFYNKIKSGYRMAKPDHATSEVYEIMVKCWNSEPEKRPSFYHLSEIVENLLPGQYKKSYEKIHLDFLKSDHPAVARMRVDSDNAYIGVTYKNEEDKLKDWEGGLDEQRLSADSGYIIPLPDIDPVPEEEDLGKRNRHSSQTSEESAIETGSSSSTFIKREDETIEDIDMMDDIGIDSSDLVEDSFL

Row | Structure (SMILES) | inhibition at 1 µM (PDGFRA (PDGFR alpha)) | inhibition at 3 µM (PDGFRA (PDGFR alpha)) | inhibition at 10 µM (PDGFRA (PDGFR alpha)) | inhibition at 1 µM (IKBKB (IKK beta)) | inhibition at 3 µM (IKBKB (IKK beta)) | inhibition at 10 µM (IKBKB (IKK beta)) | inhibition at 1 µM (PRKACA (PKA)) | inhibition at 3 µM (PRKACA (PKA)) | inhibition at 10 µM (PRKACA (PKA)) | inhibition at 1 µM (FLT3) | inhibition at 3 µM (FLT3) | inhibition at 10 µM (FLT3) | inhibition at 1 µM (AURKA (Aurora A)) | inhibition at 3 µM (AURKA (Aurora A)) | inhibition at 10 µM (AURKA (Aurora A)) | inhibition at 1 µM (ABL1 E255K) | inhibition at 3 µM (ABL1 E255K) | inhibition at 10 µM (ABL1 E255K)
1 | CS(=O)(=O)Nc1cccc(-c2csc(NC(=O)CSc3nc4nccnc4c(=O)n3CCc3ccccc3)n2)c1 [compound 3, PITCOIN3] | 1.77% | 20.1% | 16.3% | 3.7% | 14.3% | 12.2% | 9.77% | 8.29% | 5.74% | 12.3% | 11% | 12.7% | 5.01% | 0.816% | 0.802% | -1.49% | 2.48% | -1.01%
2 | O=C(CSc1nc2nccnc2c(=O)n1CCc1ccccc1)Nc1nccs1 [compound 1, PITCOIN1] | 8.94% | 1.9% | 4.84% | 8.34% | 4.24% | 4.15% | 9.73% | 5.23% | 4.58% | 9.16% | 8.82% | 8.33% | 0.058% | 0.515% | -0.231% | -2.31% | -1.35% | -2.49%
